Reference: patent US5780250A, “Immunoassay standards for polyaromatic hydrocarbon detection” (Strategic Diagnostics, Inc., priority 1996, dated 1998)

Assays:
[1] = tested on: rabbit anti-PAH antisera (anti-analyte antibody on paramagnetic particles); settings: for 50% B/Bo: concentration giving mean absorbance 0.5 times that of the Diluent/Zero Standard, competitive immunoassay, 450 nm; for LDD (least detectable dose): estimated as the dose needed to generate a B/Bo of 90%
[2] = Study of Standard Stability (B/Bo as a function of time of storage); settings: after 200 days of storage at 4° C. (FIG. 2)
Method: The vials were then capped with Teflon coated caps and crimped. The vials were then separated into five groups. Each group was then placed at a different temperature (-20° C., 2°-8° C., 20°-25° C., 37° C. and 50° C.) in an upright position. Standards were tested for B/Bo at specified intervals by assaying each standard level in duplicate for each temperature. The results were then graphed as a function of time (x) versus B/Bo(y) by temperature level.

apparent increase in B/Bo on storage [2]	SMILES	50% B/Bo [1]	LDD (least detectable dose) [1]
–	c1ccc2cc3c(cc2c1)-c1cccc2cccc-3c12 [benzo(k)fluoranthene]	524 ppb	0.77 ppb
–	c1ccc2c(c1)-c1ccc3ccc4cccc5cc-2c1c3c45 [indeno(1,2,3-c,d)pyrene]	27.2 ppb	0.78 ppb
–	c1ccc2c(c1)Cc1ccccc1-2 [fluorene]	35.2 ppb	1.65 ppb
–	c1ccc2c(c1)cc1ccc3cccc4ccc2c1c34 [benzo(a)pyrene]	6.9 ppb	0.50 ppb
–	c1ccc2c(c1)-c1cccc3c1c-2cc1ccccc13 [benzo(b)fluoranthene]	54.2 ppb	0.91 ppb
25%	c1ccc2c(c1)ccc1ccccc12 [phenanthrene, reference compound]	16.5 ppb	0.70 ppb
–	c1ccc2c(c1)ccc1c3ccccc3ccc21 [chrysene]	7.8 ppb	0.40 ppb
–	c1ccc2cc3ccccc3cc2c1 [anthracene]	11.0 ppb	0.54 ppb
–	c1ccc2c(c1)-c1cccc3cccc-2c13 [fluoranthene]	4.7 ppb	0.32 ppb
–	c1ccc2cc3c(ccc4ccccc43)cc2c1 [1,2 benzoanthracene]	28.4 ppb	0.77 ppb
–	c1cc2ccc3cccc4ccc(c1)c2c34 [pyrene]	7.7 ppb	0.20 ppb
